The assay addresses GCN2 (Homo sapiens (Human), UniProt Q9P2K8). Put plainly: GCN2 Biochemical Assay (TR-FRET, GFP-eIF2S1 substrate phosphorylation). The settings on record: read-out: IC50 (GCN2 Inhibitory Activity). In a few lines: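 TR-FRET readout (Ex 340, Em 490/520 nm) after 2–3 h with Tb-labelled phospho-eIF2S1 antibody in stop mix, following a 70 min room-temperature kinase step. Reaction: in-house GCN2, GFP-eIF2S1, ATP, tRNA in Tris pH 7.5 (2× stocks 1.6 nM, 50 nM, 0.2 mM); compounds tested at 10 concentrations, with a phospho-substrate artifact counter-plate.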
In general terms: In TR-FRET formats the signal depends on donor and acceptor labels being close together.

SMILES strings stand for the structures.

GCN2, sequence (Q9P2K8 whole entry): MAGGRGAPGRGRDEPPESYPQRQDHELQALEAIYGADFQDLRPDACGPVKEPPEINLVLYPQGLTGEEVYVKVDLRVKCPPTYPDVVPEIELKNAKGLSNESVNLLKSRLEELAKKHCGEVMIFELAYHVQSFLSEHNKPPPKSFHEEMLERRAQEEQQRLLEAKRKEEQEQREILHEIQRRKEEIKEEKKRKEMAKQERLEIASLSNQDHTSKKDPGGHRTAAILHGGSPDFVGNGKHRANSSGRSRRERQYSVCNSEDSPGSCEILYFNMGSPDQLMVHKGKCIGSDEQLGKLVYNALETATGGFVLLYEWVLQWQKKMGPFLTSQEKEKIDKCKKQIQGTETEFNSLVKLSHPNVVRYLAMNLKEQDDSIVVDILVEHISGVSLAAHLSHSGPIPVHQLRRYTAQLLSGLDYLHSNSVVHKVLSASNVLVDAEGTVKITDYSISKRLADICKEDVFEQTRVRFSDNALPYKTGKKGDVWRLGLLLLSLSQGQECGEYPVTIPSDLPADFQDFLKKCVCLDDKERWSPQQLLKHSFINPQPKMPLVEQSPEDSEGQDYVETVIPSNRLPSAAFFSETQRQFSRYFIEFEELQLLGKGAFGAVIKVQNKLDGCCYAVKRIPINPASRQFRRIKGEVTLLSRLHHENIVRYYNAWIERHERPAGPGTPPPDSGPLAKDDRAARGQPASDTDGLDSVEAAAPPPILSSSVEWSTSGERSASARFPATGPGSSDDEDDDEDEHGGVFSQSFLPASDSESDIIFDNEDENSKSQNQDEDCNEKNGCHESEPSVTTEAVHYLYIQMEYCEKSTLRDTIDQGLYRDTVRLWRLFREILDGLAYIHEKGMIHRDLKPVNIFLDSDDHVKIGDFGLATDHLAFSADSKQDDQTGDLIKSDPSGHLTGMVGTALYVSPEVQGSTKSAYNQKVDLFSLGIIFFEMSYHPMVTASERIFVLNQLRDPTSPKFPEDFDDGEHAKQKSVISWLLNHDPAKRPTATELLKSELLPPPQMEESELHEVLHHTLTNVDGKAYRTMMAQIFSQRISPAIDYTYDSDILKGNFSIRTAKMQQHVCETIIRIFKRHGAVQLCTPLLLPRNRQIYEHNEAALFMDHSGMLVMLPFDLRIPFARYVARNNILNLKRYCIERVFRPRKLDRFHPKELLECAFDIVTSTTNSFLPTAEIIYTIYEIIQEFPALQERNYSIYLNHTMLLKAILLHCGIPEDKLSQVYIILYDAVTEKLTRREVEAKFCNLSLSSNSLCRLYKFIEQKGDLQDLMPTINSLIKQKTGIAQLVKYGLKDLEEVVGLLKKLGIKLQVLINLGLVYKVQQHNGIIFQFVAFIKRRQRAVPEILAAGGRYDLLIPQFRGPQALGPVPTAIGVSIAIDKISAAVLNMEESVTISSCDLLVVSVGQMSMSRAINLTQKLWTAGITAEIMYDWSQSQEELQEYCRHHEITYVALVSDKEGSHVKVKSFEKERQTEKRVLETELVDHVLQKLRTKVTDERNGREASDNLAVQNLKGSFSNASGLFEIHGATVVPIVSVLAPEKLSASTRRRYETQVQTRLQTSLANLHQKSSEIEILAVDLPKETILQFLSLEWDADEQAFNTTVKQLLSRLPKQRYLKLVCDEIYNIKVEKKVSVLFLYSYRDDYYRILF

Regarding `CCN(CC)c1nc(O[C@H]2CCN(CC(=O)Nc3cccc4c(-c5nc(Nc6cc(C)n(C)n6)ncc5C)c[nH]c34)C2)ncc1F` [Example 183, (S)-2-(3-((4-(diethylamino)-5-fluoropyrimidin-2-yl)oxy)pyrrolidin-1-yl)-N-(3-(2-((1,5-dimethyl-1H-pyrazol-3-yl)amino)-5-methylpyrimidin-4-yl)-1H-indol-7-yl)acetamide], the concentration for half-maximal inhibition (IC50) is less than 10 nM. The value for `Cc1cnc(Nc2cc(C)n(C)n2)nc1-c1c[nH]c2c(NC(=O)CN3CC[C@H](Oc4cc(N5CCC(O)CC5)ncn4)C3)cccc12` [Example 163, (S)-N-(3-(2-((1,5-dimethyl-1H-pyrazol-3-yl)amino)-5-methylpyrimidin-4-yl)-1H-indol-7-yl)-2-(3-((6-(4-hydroxypiperidin-1-yl)pyrimidin-4-yl)oxy)pyrrolidin-1-yl)acetamide] was less than 10 nM. In the case of `Cc1cnc(Nc2cc(C)n(C)n2)nc1-c1c[nH]c2c(N3Cc4ccc(C5=CCNCC5)cc4C3=O)cccc12` [Example 381, 2-(3-(2-((1,5-dimethyl-1H-pyrazol-3-yl)amino)-5-methylpyrimidin-4-yl)-1H-indol-7-yl)-6-(1,2,3,6-tetrahydropyridin-4-yl)isoindolin-1-one], the 50% inhibitory concentration (IC50) is less than 10 nM. For `Cc1cnc(Nc2cc(C)n(C)n2)nc1-c1c[nH]c2c(NC(=O)CN3CC[C@H](Oc4cnc(N5CCN(C)CC5)nc4)C3)cccc12` [Example 242, (S)-N-(3-(2-((1,5-dimethyl-1H-pyrazol-3-yl)amino)-5-methylpyrimidin-4-yl)-1H-indol-7-yl)-2-(3-((2-(4-methylpiperazin-1-yl)pyrimidin-5-yl)oxy)pyrrolidin-1-yl)acetamide], the IC50 fell in the range of 10 to 100 nM. Under `Cc1cnc(Nc2cc(C)n(C)n2)nc1-c1c[nH]c2c(N3Cc4ccc(-c5ccccc5)cc4C3=O)cccc12` [Example 379, 2-(3-(2-((1,5-dimethyl-1H-pyrazol-3-yl)amino)-5-methylpyrimidin-4-yl)-1H-indol-7-yl)-6-phenylisoindolin-1-one] stands 100 to 1000 nM. Under `Cc1cnc(Nc2cc(C)n(C)n2)nc1-c1c[nH]c2c(N3Cc4c(NC(=O)C5(C)CCCNC5)cccc4C3=O)cccc12` (stereo not shown) [Example 332, N-(2-(3-(2-((1,5-dimethyl-1H-pyrazol-3-yl)amino)-5-methylpyrimidin-4-yl)-1H-indol-7-yl)-1-oxoisoindolin-4-yl)-3-methylpiperidine-3-carboxamide] stands less than 10 nM. Regarding `Cc1cnc(Nc2cc(C)n(C)n2)nc1-c1c[nH]c2c(N3Cc4c(/C=C/C(=O)N(C)C)cccc4C3=O)cccc12` [Example 360, (E)-3-(2-(3-(2-((1,5-dimethyl-1H-pyrazol-3-yl)amino)-5-methylpyrimidin-4-yl)-1H-indol-7-yl)-1-oxoisoindolin-4-yl)-N,N-dimethylacrylamide], the IC50 was less than 10 nM. Regarding `Cc1cnc(Nc2cc(C)n(C)n2)nc1-c1c[nH]c2c(N3Cc4c(NC(=O)c5cnoc5C)cccc4C3=O)cccc12` [Example 321, N-(2-(3-(2-((1,5-dimethyl-1H-pyrazol-3-yl)amino)-5-methylpyrimidin-4-yl)-1H-indol-7-yl)-1-oxoisoindolin-4-yl)-5-methylisoxazole-4-carboxamide], the IC50 was less than 10 nM.

Regarding `CNc1ncnc(O[C@H]2CCN(CC(=O)Nc3cccc4c(-c5nc(Nc6cc(C)n(C)n6)ncc5C)c[nH]c34)C2)n1` [Example 135, (S)-N-(3-(2-((1,5-dimethyl-1H-pyrazol-3-yl)amino)-5-methylpyrimidin-4-yl)-1H-indol-7-yl)-2-(3-((4-(methylamino)-1,3,5-triazin-2-yl)oxy)pyrrolidin-1-yl)acetamide], the half-maximal inhibitory concentration (IC50) was less than 10 nM. The value for `Cc1cnc(Nc2cc(C)n(C)n2)nc1-c1c[nH]c2c(NC(=O)CN3CC[C@H](Oc4ccnc(NCC(F)F)n4)C3)cccc12` [Example 200, (S)-2-(3-((2-((2,2-difluoroethyl)amino)pyrimidin-4-yl)oxy)pyrrolidin-1-yl)-N-(3-(2-((1,5-dimethyl-1H-pyrazol-3-yl)amino)-5-methylpyrimidin-4-yl)-1H-indol-7-yl)acetamide] was less than 10 nM; that for `Cc1cnc(Nc2cc(C)n(C)n2)nc1-c1c[nH]c2c(N3Cc4c(cccc4-c4ccnc(N(C)C)c4)C3=O)cccc12` [Example 475, 2-(3-(2-((1,5-dimethyl-1H-pyrazol-3-yl)amino)-5-methylpyrimidin-4-yl)-1H-indol-7-yl)-4-(2-(dimethylamino)pyridin-4-yl)isoindolin-1-one] was less than 10 nM. Under `Cc1cnc(Nc2cc(C)n(C)n2)nc1-c1c[nH]c2c(NC(=O)CN3CCC(Oc4cccnc4)CC3)cccc12` [Example 38, N-(3-(2-((1,5-dimethyl-1H-pyrazol-3-yl)amino)-5-methylpyrimidin-4-yl)-1H-indol-7-yl)-2-(4-(pyridin-3-yloxy)piperidin-1-yl)acetamide] stands 100 to 1000 nM.

`Cc1cnc(Nc2cc(C)n(C)n2)nc1-c1c[nH]c2c(N3Cc4c(NC(=O)C5CCCC(C)C5)cccc4C3=O)cccc12` (stereo not shown) [Example 329, N-(2-(3-(2-((1,5-dimethyl-1H-pyrazol-3-yl)amino)-5-methylpyrimidin-4-yl)-1H-indol-7-yl)-1-oxoisoindolin-4-yl)-3-methylcyclohexane-1-carboxamide]: the half-inhibitory concentration (IC50) lay within 100 to 1000 nM.

With `Cc1cnc(Nc2cc(C)n(C)n2)nc1-c1c[nH]c2c(NC(=O)CN3CC[C@H](O)C3)cccc12` [Example 72, (S)-N-(3-(2-((1,5-dimethyl-1H-pyrazol-3-yl)amino)-5-methylpyrimidin-4-yl)-1H-indol-7-yl)-2-(3-hydroxypyrrolidin-1-yl)acetamide], the IC50 is 10 to 100 nM. The value for `Cc1cc(O[C@H]2CCN(CC(=O)Nc3cccc4c(-c5nc(Nc6cc(C)n(C)n6)ncc5C)c[nH]c34)C2)nc(N)n1` [Example 95, (S)-2-(3-((2-amino-6-methylpyrimidin-4-yl)oxy)pyrrolidin-1-yl)-N-(3-(2-((1,5-dimethyl-1H-pyrazol-3-yl)amino)-5-methylpyrimidin-4-yl)-1H-indol-7-yl)acetamide] was less than 10 nM; that for `Cc1cnc(Nc2cc(C)n(C)n2)nc1-c1c[nH]c2c(NC(=O)CN3CC[C@H](Oc4ccc(F)cc4F)C3)cccc12` [Example 83, (S)-2-(3-(2,4-difluorophenoxy)pyrrolidin-1-yl)-N-(3-(2-((1,5-dimethyl-1H-pyrazol-3-yl)amino)-5-methylpyrimidin-4-yl)-1H-indol-7-yl)acetamide] was 10 to 100 nM; that for `Cc1cnc(Nc2cc(C)n(C)n2)nc1-c1c[nH]c2c(NC(=O)CN3CC[C@H](Oc4ncc(-c5cccnc5)cn4)C3)cccc12` [Example 255, (S)-N-(3-(2-((1,5-dimethyl-1H-pyrazol-3-yl)amino)-5-methylpyrimidin-4-yl)-1H-indol-7-yl)-2-(3-((5-(pyridin-3-yl)pyrimidin-2-yl)oxy)pyrrolidin-1-yl)acetamide] was 10 to 100 nM. Consider `Cc1cnc(Nc2cc(C)n(C)n2)nc1-c1c[nH]c2c(N3Cc4c(cccc4-c4ccccc4CO)C3=O)cccc12` [Example 437, 2-(3-(2-((1,5-dimethyl-1H-pyrazol-3-yl)amino)-5-methylpyrimidin-4-yl)-1H-indol-7-yl)-4-(2-(hydroxymethyl)phenyl)isoindolin-1-one], for which the IC50 is less than 10 nM. Under `Cc1cnc(Nc2cc(C)n(C)n2)nc1-c1c[nH]c2c(N3Cc4c(NC(=O)c5cocn5)cccc4C3=O)cccc12` [Example 299, N-(2-(3-(2-((1,5-dimethyl-1H-pyrazol-3-yl)amino)-5-methylpyrimidin-4-yl)-1H-indol-7-yl)-1-oxoisoindolin-4-yl)oxazole-4-carboxamide] stands less than 10 nM; under `COc1ccc2c(-c3nc(Nc4cc(C)n(C)n4)ncc3C)c[nH]c2c1NC(=O)CN1CC[C@H](Oc2ccnc(NC3CC3)n2)C1` [Example 4, (S)-2-(3-((2-(cyclopropylamino)pyrimidin-4-yl)oxy)pyrrolidin-1-yl)-N-(3-(2-((1,5-dimethyl-1H-pyrazol-3-yl)amino)-5-methylpyrimidin-4-yl)-6-methoxy-1H-indol-7-yl)acetamide], less than 10 nM.

On to `Cc1cnc(Nc2cc(C)n(C)n2)nc1-c1c[nH]c2c(NC(=O)CN3CC[C@H](Oc4ccnc(NCC(F)(F)F)n4)C3)cccc12` [Example 198, (S)-N-(3-(2-((1,5-dimethyl-1H-pyrazol-3-yl)amino)-5-methylpyrimidin-4-yl)-1H-indol-7-yl)-2-(3-((2-((2,2,2-trifluoroethyl)amino)pyrimidin-4-yl)oxy)pyrrolidin-1-yl)acetamide], for which the IC50 is less than 10 nM.

Turning to `CNc1cc(-c2ccc(F)c3c2CN(c2cccc4c(-c5nc(Nc6cc(C)n(C)n6)ncc5C)c[nH]c24)C3=O)ccn1` [Example 482, 2-(3-(2-((1,5-dimethyl-1H-pyrazol-3-yl)amino)-5-methylpyrimidin-4-yl)-1H-indol-7-yl)-7-fluoro-4-(2-(methylamino)pyridin-4-yl)isoindolin-1-one], the concentration for half-maximal inhibition (IC50) is less than 10 nM. The value for `Cc1cnc(Nc2cc(C)n(C)n2)nc1-c1c[nH]c2c(N3Cc4c(cccc4-c4ccc(N)cc4)C3=O)cccc12` [Example 396, 4-(4-aminophenyl)-2-(3-(2-((1,5-dimethyl-1H-pyrazol-3-yl)amino)-5-methylpyrimidin-4-yl)-1H-indol-7-yl)isoindolin-1-one] was less than 10 nM; that for `Cc1cnc(Nc2cc(C)n(C)n2)nc1-c1c[nH]c2c(N3Cc4c(NC(=O)Cc5ccccc5)cccc4C3=O)cccc12` [Example 305, N-(2-(3-(2-((1,5-dimethyl-1H-pyrazol-3-yl)amino)-5-methylpyrimidin-4-yl)-1H-indol-7-yl)-1-oxoisoindolin-4-yl)-2-phenylacetamide] was less than 10 nM. On to `Cc1cnc(Nc2cc(C)n(C)n2)nc1-c1c[nH]c2c(N3Cc4c(cccc4-c4ccc(C#N)cc4)C3=O)cccc12` [Example 432, 4-(2-(3-(2-((1,5-dimethyl-1H-pyrazol-3-yl)amino)-5-methylpyrimidin-4-yl)-1H-indol-7-yl)-1-oxoisoindolin-4-yl)benzonitrile], for which the IC50 is less than 10 nM.

Usually IC50 stands for the concentration that inhibits the measured activity by half.
